PubChem BioAssay AID248 (DTP/NCI, 2004)
Where “and” joins values, the source holds several entries; their conditions need not be identical. Equal values may be shown once. Inconclusive results and toxic doses are left out. Cut-off read from the data, not from the text of the source: active = T/C of 150% or more; inactive = T/C below 125%.

System: L1210 leukemia ip in BDF1 mice, survival T/C
Assay: NCI In Vivo Anticancer Drug Screen. Data for tumor model L1210 Leukemia (intraperitoneal) in B6D2F1 (BDF1) mice
Conditions: endpoint: mean survival time, higher = longer survival
Method in brief: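 In this screen, tumor-bearing mice given compound are compared to those given vehicle, and their survival values are reported as a treated-to-control quotient.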

[1] = dose: 100.0 mg/kg/injection, schedule: Q01DX001 (ip), vehicle: carboxymethylcellulose (CMC)
[2] = dose: 100.0 mg/kg/injection, schedule: Q04DX003 (ip), vehicle: saline with Tween-80
[3] = dose: 200.0 mg/kg/injection, schedule: Q04DX003 (ip), vehicle: saline with Tween-80
[4] = dose: 400.0 mg/kg/injection, schedule: Q04DX003 (ip), vehicle: saline with Tween-80
[5] = dose: 100.0 mg/kg/injection, schedule: Q04DX003 (ip), vehicle: Klucel (hydroxypropylcellulose) (HPC)
[6] = dose: 200.0 mg/kg/injection, schedule: Q04DX003 (ip), vehicle: Klucel (hydroxypropylcellulose) (HPC)
[7] = dose: 400.0 mg/kg/injection, schedule: Q04DX003 (ip), vehicle: Klucel (hydroxypropylcellulose) (HPC)
[8] = dose: 100.0 mg/kg/injection, schedule: Q04DX002 (ip), vehicle: saline with Tween-80
[9] = dose: 50.0 mg/kg/injection, schedule: Q01DX009 (ip), vehicle: Klucel (hydroxypropylcellulose) (HPC)
[10] = dose: 100.0 mg/kg/injection, schedule: Q01DX009 (ip), vehicle: Klucel (hydroxypropylcellulose) (HPC)
[11] = dose: 200.0 mg/kg/injection, schedule: Q01DX009 (ip), vehicle: Klucel (hydroxypropylcellulose) (HPC)
[12] = dose: 100.0 mg/kg/injection, schedule: Q04DX003 (ip), vehicle: saline
[13] = dose: 200.0 mg/kg/injection, schedule: Q04DX003 (ip), vehicle: saline
[14] = dose: 400.0 mg/kg/injection, schedule: Q04DX003 (ip), vehicle: saline
[15] = dose: 400.0 mg/kg/injection, schedule: Q01DX009 (ip), vehicle: Klucel (hydroxypropylcellulose) (HPC)
[16] = dose: 100.0 mg/kg/injection, schedule: Q01DX009 (ip), vehicle: saline

Measured: T/C

CCC(C)N=Cc1ccccc1O.CCC(C)N=Cc1ccccc1O.[Cu] (configuration not stated)
inactive: dose: 9.5 mg/kg/injection, schedule: Q01DX001 (ip), vehicle: other 100 % of control | dose: 19.0 mg/kg/injection, schedule: Q01DX001 (ip), vehicle: other 107 % of control | dose: 38.0 mg/kg/injection, schedule: Q01DX001 (ip), vehicle: other 100 % of control

Oc1[nH]c(=S)sc1C1=c2ccccc2=NCC1
inactive: dose: 44.4 mg/kg/injection, schedule: Q01DX001 (ip), vehicle: carboxymethylcellulose (CMC) 93 % of control and 94 % of control | dose: 66.7 mg/kg/injection, schedule: Q01DX001 (ip), vehicle: carboxymethylcellulose (CMC) 96 % of control and 106 % of control | [1] 98 % of control and 107 % of control | dose: 150.0 mg/kg/injection, schedule: Q01DX001 (ip), vehicle: carboxymethylcellulose (CMC) 98 % of control and 100 % of control

CC(C)(C)c1ccc(O)c(C(C)(C)C)c1
inactive: dose: 50.0 mg/kg/injection, schedule: Q01DX009 (ip), vehicle: saline with Tween-80 100 % of control | dose: 100.0 mg/kg/injection, schedule: Q01DX009 (ip), vehicle: saline with Tween-80 96 % of control | [2] 91 % of control | dose: 200.0 mg/kg/injection, schedule: Q01DX009 (ip), vehicle: saline with Tween-80 97 % of control | [3] 95 % of control

CCC(C(=O)O)N1C(=O)C2C3CCC(C3)C2C1=O (configuration not stated)
inactive: [2] 98 % of control | [3] 103 % of control | [4] 103 % of control

COc1cc(CC2(C#N)c3ccccc3C=CN2C(=O)c2ccccc2)c(Oc2cc(CC3(C#N)c4ccccc4C=CN3C(=O)c3ccccc3)ccc2OC)cc1OC (configuration not stated)
inactive: [5] 98 % of control | [6] 93 % of control | [7] 92 % of control

CCOC(=S)SC/C=C/CSC(=S)OCC
inactive: [8] 97 % of control | dose: 200.0 mg/kg/injection, schedule: Q04DX002 (ip), vehicle: saline with Tween-80 103 % of control | dose: 400.0 mg/kg/injection, schedule: Q04DX002 (ip), vehicle: saline with Tween-80 107 % of control

O=[N+]([O-])C(CO)(CO)CC(F)(F)F
inactive: dose: 3.13 mg/kg/injection, schedule: Q01DX009 (ip), vehicle: saline 96 % of control | dose: 6.25 mg/kg/injection, schedule: Q01DX009 (ip), vehicle: saline 98 % of control | dose: 12.5 mg/kg/injection, schedule: Q01DX009 (ip), vehicle: saline 102 % of control

CCN1CCCC(SC(=O)C(O)(c2ccccc2)c2ccccc2)C1 (configuration not stated)
inactive: dose: 75.0 mg/kg/injection, schedule: Q01DX001 (ip), vehicle: other 94 % of control | dose: 150.0 mg/kg/injection, schedule: Q01DX001 (ip), vehicle: other 94 % of control | dose: 300.0 mg/kg/injection, schedule: Q01DX001 (ip), vehicle: other 88 % of control

C/C(=N\NC(=S)Nc1cc(Cl)ccc1Cl)c1ccc(O)cc1O
inactive: dose: 100.0 mg/kg/injection, schedule: Q01DX001 (ip), vehicle: Klucel (hydroxypropylcellulose) (HPC) 88 % of control | dose: 200.0 mg/kg/injection, schedule: Q01DX001 (ip), vehicle: Klucel (hydroxypropylcellulose) (HPC) 96 % of control | dose: 400.0 mg/kg/injection, schedule: Q01DX001 (ip), vehicle: Klucel (hydroxypropylcellulose) (HPC) 95 % of control

Cc1nc2nc(=S)[nH]c(N)c2nc1C
inactive: dose: 16.0 mg/kg/injection, schedule: Q01DX Z (ip), vehicle: methylcellulose (MC) 86 % of control | dose: 31.0 mg/kg/injection, schedule: Q01DX Z (ip), vehicle: methylcellulose (MC) 91 % of control | dose: 62.0 mg/kg/injection, schedule: Q01DX Z (ip), vehicle: methylcellulose (MC) 88 % of control | dose: 125.0 mg/kg/injection, schedule: Q01DX Z (ip), vehicle: methylcellulose (MC) 95 % of control

O=c1cc(-c2ccccc2)[nH]c2ccc(S(=O)(=O)O)cc12
inactive: [5] 93 % of control | [6] 106 % of control | [7] 96 % of control

CC1(C)C/C(=C/c2ccc([N+](=O)[O-])cc2[N+](=O)[O-])C(=O)O1
inactive: dose: 50.0 mg/kg/injection, schedule: Q01DX001 (ip), vehicle: carboxymethylcellulose (CMC) 100 % of control | [1] 94 % of control | dose: 200.0 mg/kg/injection, schedule: Q01DX001 (ip), vehicle: carboxymethylcellulose (CMC) 94 % of control | dose: 400.0 mg/kg/injection, schedule: Q01DX001 (ip), vehicle: carboxymethylcellulose (CMC) 100 % of control

CC1Nc2ccccc2N2C(=O)CCC12 (configuration not stated)
inactive: [9] 106 % of control | [10] 103 % of control | [11] 106 % of control

CC(=O)NC(C(=O)O)C(C)C(=O)O (configuration not stated)
inactive: [12] 90 % of control | [13] 93 % of control | [14] 92 % of control

CC(CO)(CO)C1CCCCC1
inactive: dose: 25.0 mg/kg/injection, schedule: Q04DX002 (ip), vehicle: saline with Tween-80 93 % of control | dose: 50.0 mg/kg/injection, schedule: Q04DX002 (ip), vehicle: saline with Tween-80 101 % of control | [8] 97 % of control

CCCCNS(=O)(=O)c1n[nH]c(=O)[nH]c1=O
inactive: dose: 100.0 mg/kg/injection, schedule: Q01DX001 (ip), vehicle: other 104 % of control | dose: 200.0 mg/kg/injection, schedule: Q01DX001 (ip), vehicle: other 101 % of control | dose: 400.0 mg/kg/injection, schedule: Q01DX001 (ip), vehicle: other 93 % of control

CCCCCCCCCCCCCCCCCC(=O)OCCCCCCC
inactive: [10] 102 % of control | [11] 102 % of control | [15] 112 % of control

C/C1=C/CCCCCC1
inactive: dose: 100.0 mg/kg/injection, schedule: Q01DX001 (ip), vehicle: saline 90 % of control | [16] 96 % of control | [12] 96 % of control | dose: 200.0 mg/kg/injection, schedule: Q01DX001 (ip), vehicle: saline 101 % of control | dose: 200.0 mg/kg/injection, schedule: Q01DX009 (ip), vehicle: saline 89 % of control | [13] 101 % of control | dose: 400.0 mg/kg/injection, schedule: Q01DX009 (ip), vehicle: saline 94 % of control | [14] 98 % of control

CC1(C)N=C(N)N=C(N)N1c1ccc(C(=O)Nc2cccc(S(=O)(=O)F)c2)cc1
inactive: dose: 0.8 mg/kg/injection, schedule: Q01DX009 (ip), vehicle: saline 97 % of control | dose: 4.0 mg/kg/injection, schedule: Q01DX009 (ip), vehicle: saline 101 % of control | dose: 20.0 mg/kg/injection, schedule: Q01DX009 (ip), vehicle: saline 97 % of control | [16] 100 % of control | dose: 500.0 mg/kg/injection, schedule: Q01DX009 (ip), vehicle: saline 92 % of control

Cc1ccc(Nc2nc(N)nc(N)c2N)cc1C
inactive: dose: 25.0 mg/kg/injection, schedule: Q01DX Z (ip), vehicle: saline 93 % of control

CCCCC/C=C/c1c(C)[nH]c2ccccc2c1=O
inactive: [10] 118 % of control | [5] 100 % of control | [11] 94 % of control | [6] 96 % of control | [15] 99 % of control | [7] 89 % of control

N#CSC/C=C/Cl
inactive: [9] 94 % of control | [10] 107 % of control | [5] 92 % of control | [6] 90 % of control

CC1(C)CC(=O)C=C(NCc2ccccc2)C1
inactive: dose: 50.0 mg/kg/injection, schedule: Q01DX009 (ip), vehicle: acetone 96 % of control | dose: 100.0 mg/kg/injection, schedule: Q01DX009 (ip), vehicle: acetone 95 % of control | dose: 200.0 mg/kg/injection, schedule: Q01DX009 (ip), vehicle: acetone 101 % of control

NC(=O)c1cc(I)cc(I)c1N
inactive: dose: 100.0 mg/kg/injection, schedule: Q01DX001 (ip), vehicle: saline with Tween-80 95 % of control | dose: 200.0 mg/kg/injection, schedule: Q01DX001 (ip), vehicle: saline with Tween-80 97 % of control | dose: 400.0 mg/kg/injection, schedule: Q01DX001 (ip), vehicle: saline with Tween-80 98 % of control

CCCCN(CCCC)CP(=O)(CN(CCCC)CCCC)CN(CCCC)CCCC
inactive: [2] 93 % of control | [3] 96 % of control | [4] 111 % of control

O=C(O)C1CSC2(CCCCC2)N1 (configuration not stated)
inactive: [12] 93 % of control | [13] 98 % of control | [14] 89 % of control
